The values below come from ChEMBL document CHEMBL2331379, “Synthesis of derivatives of methyl rosmarinate and their inhibitory activities against matrix metalloproteinase-1 (MMP-1)” (Eur J Med Chem, 2013).

In one assay the target is T1, Interstitial collagenase (Homo sapiens, UniProt P03956).
T1 sequence (P03956 whole entry): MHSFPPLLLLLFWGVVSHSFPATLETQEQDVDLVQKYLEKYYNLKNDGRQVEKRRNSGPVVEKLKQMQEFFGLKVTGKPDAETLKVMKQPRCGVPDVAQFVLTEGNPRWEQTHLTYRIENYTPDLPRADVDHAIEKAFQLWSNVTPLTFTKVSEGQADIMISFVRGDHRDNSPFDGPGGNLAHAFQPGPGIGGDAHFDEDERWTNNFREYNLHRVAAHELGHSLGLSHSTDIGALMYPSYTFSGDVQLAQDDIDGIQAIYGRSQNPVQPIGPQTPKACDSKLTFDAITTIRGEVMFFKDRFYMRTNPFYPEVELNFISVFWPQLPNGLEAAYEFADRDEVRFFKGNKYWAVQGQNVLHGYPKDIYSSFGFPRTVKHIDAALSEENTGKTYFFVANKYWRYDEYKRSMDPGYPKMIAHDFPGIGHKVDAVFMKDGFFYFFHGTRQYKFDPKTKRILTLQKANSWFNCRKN
Description: Inhibition of human recombinant MMP1 catalytic domain using Dnp-Pro-beta-cyclohexyl-Ala-Gly-Cys(Me)-His-Lys-(Nma)-NH2 as substrate preincubated with enzyme for 30 mins prior to substrate addition monitored for 60 mins by fluorometric assay.

For another assay, the target named is Collagenase 3 (Homo sapiens, UniProt P45452). Nature of the assay: Inhibition of MMP13 (unknown origin).
Another assay addresses Stromelysin-1 (Homo sapiens, UniProt P08254). Description: Inhibition of MMP3 (unknown origin).
The target of assay [1] is Matrix metalloproteinase-9 (Homo sapiens, UniProt P14780). Description: Inhibition of MMP9 (unknown origin).
Matrix metalloproteinase-9, sequence (P14780 whole entry): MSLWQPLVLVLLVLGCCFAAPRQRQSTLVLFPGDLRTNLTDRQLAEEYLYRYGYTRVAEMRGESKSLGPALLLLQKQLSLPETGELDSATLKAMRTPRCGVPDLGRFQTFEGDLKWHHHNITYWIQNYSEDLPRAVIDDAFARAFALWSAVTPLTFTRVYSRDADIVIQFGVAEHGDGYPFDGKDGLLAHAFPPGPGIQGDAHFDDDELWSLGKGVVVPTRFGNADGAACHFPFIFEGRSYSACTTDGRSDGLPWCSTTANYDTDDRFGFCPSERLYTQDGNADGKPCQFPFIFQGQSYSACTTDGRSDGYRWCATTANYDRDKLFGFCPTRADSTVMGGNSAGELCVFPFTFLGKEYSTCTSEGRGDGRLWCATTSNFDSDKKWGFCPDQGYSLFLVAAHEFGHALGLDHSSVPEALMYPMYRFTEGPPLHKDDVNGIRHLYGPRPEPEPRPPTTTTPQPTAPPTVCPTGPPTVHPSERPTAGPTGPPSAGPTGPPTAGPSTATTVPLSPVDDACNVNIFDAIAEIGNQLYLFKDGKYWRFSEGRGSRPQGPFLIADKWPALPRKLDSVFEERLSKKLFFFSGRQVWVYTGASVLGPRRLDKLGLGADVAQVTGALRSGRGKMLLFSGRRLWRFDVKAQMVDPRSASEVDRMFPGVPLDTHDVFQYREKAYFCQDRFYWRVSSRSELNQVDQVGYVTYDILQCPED
In assay [2] the target is Macrophage metalloelastase (Homo sapiens, UniProt P39900). Nature of the assay: Inhibition of MMP12 (unknown origin).
Macrophage metalloelastase, sequence (P39900 whole entry): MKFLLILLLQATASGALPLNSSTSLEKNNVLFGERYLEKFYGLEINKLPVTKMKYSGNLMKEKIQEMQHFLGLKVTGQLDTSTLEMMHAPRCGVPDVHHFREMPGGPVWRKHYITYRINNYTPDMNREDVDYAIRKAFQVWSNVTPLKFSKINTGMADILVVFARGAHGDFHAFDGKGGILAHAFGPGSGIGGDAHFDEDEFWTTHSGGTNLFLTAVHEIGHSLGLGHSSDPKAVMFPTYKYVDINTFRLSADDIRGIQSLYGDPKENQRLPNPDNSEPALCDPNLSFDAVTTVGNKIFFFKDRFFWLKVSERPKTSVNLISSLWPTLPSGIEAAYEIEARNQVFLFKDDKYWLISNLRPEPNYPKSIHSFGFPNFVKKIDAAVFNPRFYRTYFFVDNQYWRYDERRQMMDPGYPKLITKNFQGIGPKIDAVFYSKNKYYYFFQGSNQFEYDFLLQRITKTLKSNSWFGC
The target in assay [3] is 72 kDa type IV collagenase (Homo sapiens, UniProt P08253). Nature of the assay: Inhibition of MMP2 (unknown origin).
72 kDa type IV collagenase, sequence (P08253 whole entry): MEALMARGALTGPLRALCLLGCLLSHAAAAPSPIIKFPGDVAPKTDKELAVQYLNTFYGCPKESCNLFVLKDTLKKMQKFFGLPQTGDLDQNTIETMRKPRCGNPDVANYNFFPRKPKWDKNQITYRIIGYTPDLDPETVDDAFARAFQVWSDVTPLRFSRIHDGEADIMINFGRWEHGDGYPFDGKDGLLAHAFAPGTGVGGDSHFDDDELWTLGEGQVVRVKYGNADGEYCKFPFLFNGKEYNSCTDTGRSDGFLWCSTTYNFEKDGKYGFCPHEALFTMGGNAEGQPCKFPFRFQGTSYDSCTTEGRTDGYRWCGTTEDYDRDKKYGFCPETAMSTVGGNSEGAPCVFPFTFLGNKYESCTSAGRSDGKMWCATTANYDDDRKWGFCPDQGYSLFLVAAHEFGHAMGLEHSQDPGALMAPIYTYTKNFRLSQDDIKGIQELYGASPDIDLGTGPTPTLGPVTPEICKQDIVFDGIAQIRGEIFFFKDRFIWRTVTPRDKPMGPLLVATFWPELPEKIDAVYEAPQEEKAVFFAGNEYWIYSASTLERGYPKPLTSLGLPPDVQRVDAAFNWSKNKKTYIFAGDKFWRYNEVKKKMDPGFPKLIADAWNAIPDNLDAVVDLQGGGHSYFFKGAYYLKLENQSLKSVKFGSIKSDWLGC

Stromelysin-1, sequence (P08254 whole entry): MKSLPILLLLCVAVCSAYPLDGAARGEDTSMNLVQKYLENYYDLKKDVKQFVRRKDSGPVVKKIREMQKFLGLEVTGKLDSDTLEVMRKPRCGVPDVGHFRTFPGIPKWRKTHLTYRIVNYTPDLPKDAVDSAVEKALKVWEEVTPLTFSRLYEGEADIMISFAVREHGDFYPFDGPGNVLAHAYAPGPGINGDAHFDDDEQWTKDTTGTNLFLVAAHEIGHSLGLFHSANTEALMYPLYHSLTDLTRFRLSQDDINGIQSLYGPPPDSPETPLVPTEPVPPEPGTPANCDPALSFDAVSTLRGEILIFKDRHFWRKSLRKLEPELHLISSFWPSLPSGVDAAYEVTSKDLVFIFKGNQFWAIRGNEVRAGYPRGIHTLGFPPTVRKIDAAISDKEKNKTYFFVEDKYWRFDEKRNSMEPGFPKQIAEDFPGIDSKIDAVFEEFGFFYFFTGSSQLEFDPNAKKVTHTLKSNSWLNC

With `COc1ccc(CC(OC(=O)/C=C/c2ccc(C(F)(F)F)cc2)C(=O)O)cc1OC` (stereo not given), at Interstitial collagenase, the concentration for half-maximal inhibition (IC50) – broadly, the midpoint of a concentration-inhibition curve – was 38.9 µM.

Regarding `COc1ccc(CC(OC(=O)/C=C/c2ccccc2)C(=O)O)cc1OC` (stereo not given), at Interstitial collagenase, the IC50 is 53.7 µM.

As to `COc1ccc(CC(OC(=O)/C=C/c2ccc(C)cc2)C(=O)O)cc1OC` (stereo not given), the IC50 on Interstitial collagenase is greater than 100 µM.

Take `COc1ccc(CC(OC(=O)/C=C/c2ccc(F)cc2)C(=O)O)cc1OC` (stereo not given): the IC50 at Interstitial collagenase is 41.7 µM.

For `COc1ccc(CC(OC(=O)/C=C/c2ccc(Cl)cc2)C(=O)O)cc1OC` (stereo not given), the 50% inhibitory concentration (IC50) on Interstitial collagenase was 42.6 µM.

Regarding `COc1ccc(CC(OC(=O)/C=C/c2ccc(Br)cc2)C(=O)O)cc1OC` (stereo not given), on Interstitial collagenase, the concentration for half-maximal inhibition (IC50) amounted to 10.7 µM.

`COc1ccc(CC(OC(=O)/C=C/c2ccccc2F)C(=O)O)cc1OC` (stereo not given): the concentration for half-maximal inhibition (IC50) at Interstitial collagenase was 34.7 µM.

Consider `COc1ccc(CC(OC(=O)/C=C/c2ccc([N+](=O)[O-])cc2)C(=O)O)cc1OC` (stereo not given), for which the half-inhibitory concentration (IC50) at Interstitial collagenase stood at 38.5 µM.

On to `COc1ccc(CC(OC(=O)/C=C/c2ccc(-c3ccccc3)cc2)C(=O)O)cc1OC` (stereo not given), for which the IC50 on Interstitial collagenase worked out at 8.6 µM.

For `COc1ccc(CC(OC(=O)/C=C/c2ccc(OCc3ccccc3)cc2)C(=O)O)cc1OC` (stereo not given), the IC50 at Interstitial collagenase was found to be 8.9 µM.

With `COc1ccc(/C=C/C(=O)OC(Cc2ccc(OC)c(OC)c2)C(=O)O)cc1` (stereo not given), the half-maximal inhibitory concentration (IC50) at Interstitial collagenase is greater than 100 µM.

Regarding `COc1ccc(CC(OC(=O)/C=C/c2ccc(O)c(O)c2)C(=O)O)cc1OC` (stereo not given), the concentration for half-maximal inhibition (IC50) on Interstitial collagenase was 13.7 µM.

On to `COc1ccc(/C=C/C(=O)OC(Cc2ccc(OC)c(OC)c2)C(=O)O)cc1OC` (stereo not given), for which, at Interstitial collagenase, the half-maximal inhibitory concentration (IC50) was greater than 100 µM.

Regarding `COc1ccc(CC(OC(=O)/C=C/c2ccc(OCc3ccccc3)c(OCc3ccccc3)c2)C(=O)O)cc1OC` (stereo not given), the half-maximal inhibitory concentration (IC50) on Interstitial collagenase is 2.5 µM.

For `COc1ccc(CC(OC(=O)/C=C/c2ccc3ccccc3c2)C(=O)O)cc1OC` (stereo not given), the IC50 on Interstitial collagenase is greater than 100 µM.

As to `COc1ccc(CC(OC(=O)/C=C/c2ccc3c(c2)OCC3)C(=O)O)cc1OC` (stereo not given), the IC50 on Interstitial collagenase is greater than 100 µM.

As for `COc1ccc(CC(OC(=O)/C=C/c2ccc(Br)cc2)C(=O)NO)cc1OC` (stereo not given), the half-inhibitory concentration (IC50) at Interstitial collagenase came out at 7.6 µM.

Regarding `COc1ccc(CC(OC(=O)/C=C/c2ccc(-c3ccccc3)cc2)C(=O)NO)cc1OC` (stereo not given), on Interstitial collagenase, the IC50 was 5.5 µM.

For `COc1ccc(CC(OC(=O)/C=C/c2ccc(OCc3ccccc3)cc2)C(=O)NO)cc1OC` (stereo not given), on Interstitial collagenase, the concentration for half-maximal inhibition (IC50) amounted to 3.6 µM.

Turning to `COc1ccc(CC(OC(=O)/C=C/c2ccc(OCc3ccccc3)c(OCc3ccccc3)c2)C(=O)NO)cc1OC` (stereo not given), the IC50 on Interstitial collagenase turned out to be 4.2 µM.

Take `COc1ccc(CC(OC(=O)/C=C/c2ccc3ccccc3c2)C(=O)NO)cc1OC` (stereo not given): the half-inhibitory concentration (IC50) on Interstitial collagenase is 6.8 µM.

As to `COc1ccc(CC(OC(=O)/C=C/c2ccc3c(c2)OCC3)C(=O)NO)cc1OC` (stereo not given), on Interstitial collagenase, the half-maximal inhibitory concentration (IC50) turned out to be 10.6 µM.

Regarding `C=CCOC(=O)C(Cc1ccc(OC)c(OC)c1)OC(=O)/C=C/c1ccc(C(F)(F)F)cc1` (stereo not given), at Interstitial collagenase, the 50% inhibitory concentration (IC50) is greater than 100 µM.

As to `C=CCOC(=O)C(Cc1ccc(OC)c(OC)c1)OC(=O)/C=C/c1ccc(Cl)cc1` (stereo not given), the IC50 on Interstitial collagenase is greater than 100 µM.

On to `C=CCOC(=O)C(Cc1ccc(OC)c(OC)c1)OC(=O)/C=C/c1ccc(Br)cc1` (stereo not given), for which the IC50 at Interstitial collagenase is greater than 100 µM.

On to `C=CCOC(=O)C(Cc1ccc(OC)c(OC)c1)OC(=O)/C=C/c1ccc([N+](=O)[O-])cc1` (stereo not given), for which the 50% inhibitory concentration (IC50) at Interstitial collagenase is greater than 100 µM.

As to `C=CCOC(=O)C(Cc1ccc(OC)c(OC)c1)OC(=O)/C=C/c1ccc(OCc2ccccc2)cc1` (stereo not given), the IC50 at Interstitial collagenase is greater than 100 µM.

`COc1ccc(C[C@@H](OC(=O)/C=C/c2ccc(OCc3ccccc3)c(OCc3ccccc3)c2)C(=O)O)cc1OC`: the IC50 is 4.5 µM against Collagenase 3; 4 µM at Stromelysin-1; 6.7 µM in assay [1]; 2.1 µM in assay [2]; 3.2 µM in assay [3]; 0.4 µM at Interstitial collagenase.

For the compound `COc1ccc(C[C@H](OC(=O)/C=C/c2ccc(OCc3ccccc3)c(OCc3ccccc3)c2)C(=O)O)cc1OC`, the IC50 against Collagenase 3 worked out at 5.4 µM; on Stromelysin-1, 3.4 µM; in assay [1], 6 µM; in assay [2], 2.3 µM; in assay [3] it was 3 µM; at Interstitial collagenase it was 0.8 µM.

In the case of `O=C(/C=C/c1ccc(O)c(O)c1)O[C@H](Cc1ccc(O)c(O)c1)C(=O)O` [ROSMARINIC ACID], the half-inhibitory concentration (IC50) at Interstitial collagenase was determined as 5.6 µM.
